These results are taken from publication PMC6099740, “Design, Synthesis and Biological Evaluation of 6,7-Disubstituted-4-phenoxyquinoline Derivatives Bearing Pyridazinone Moiety as c-Met Inhibitors” (Molecules : A Journal of Synthetic Chemistry and Natural …, 2018).

In data set [1] the test system is A549 cells. Kind of data set: MTT cytotoxicity assay, A549. The conditions noted are these: Homo sapiens, 72 h. In kind it is cell-based. The method, then: (§1) The results expressed as IC50 values were summarized in Table 1, and the values were the average of at least two independent experiments.
(§2) The cancer cell lines were cultured in minimum essential medium (MEM) supplement with 10% fetal bovine serum (FBS). […] The test compounds at indicated final concentrations were added to the culture medium and the cell cultures were continued for 72 h. […] All of the compounds were tested two times in each of the cell lines. The results expressed as inhibition rates or IC50 (half-maximal inhibitory concentration) were the averages of two determinations and calculated by using the Bacus Laboratories Incorporated Slide Scanner (Bliss) software (the Bacus Laboratories Inc. Slide Scanner (BLISS) system, Lombard, IL, USA)..
For orientation: Tetrazolium dyes change colour on reduction, which living cells bring about.

The target in data set [2] is c-Met kinase (Homo sapiens, UniProt P08581). Kind of data set: c-Met kinase inhibition assay (HTRF; mobility shift). (In general: TR-FRET usually uses a lanthanide donor and a delayed reading to cut background.)
Description: All kinase assays were performed in 96-well plates in a 50 µL reaction volume. The kinase buffer contains 50 mM HEPES, pH 7.5, 10 mM MgCl2, 0.0015% Brij-35 and 2 mM DTT. The stop buffer contains 100 mM HEPES, pH 7.5, 0.015% Brij-35, 0.2% Coating Reagent 3 and 50 mM EDTA. Dilute the compounds to 500 µM by 100% DMSO, then transfer 10 µL of compound to a new 96-well plate as the intermediate plate, add 90 µL kinase buffer to each well. Transfer 5 µL of each well of the intermediate plate to 384-well plates. The following amounts of enzyme and substrate were used per well: kinase base buffer, FAM-labeled peptide, ATP and enzyme solution. Wells containing the substrate, enzyme, DMSO without compound were used as DMSO control. Wells containing just the substrate without enzyme were used as low control. Incubate at room temperature for 10 min. Add 10 µL peptide solution to each well. […] At last collect data on Caliper program and convert conversion values to inhibition values. Percent inhibition = (max − conversion)/(max − min) × 100. ‘max’ stands for DMSO control; ‘min’ stands for low control [20].
Data set [3] relates to HepG2 cells. Kind of data set: MTT cytotoxicity assay, HepG2. The conditions noted are these: Homo sapiens, 72 h. The class given is cell-based. The protocol:
as §1
The cancer cell lines were cultured in minimum essential medium (MEM) supplement with 10% fetal bovine serum (FBS). Approximately 4 × 10^3 cells, suspended in MEM medium, were plated onto each well of a 96-well plate and incubated in 5% CO2 at 37 °C for 24 h. The test compounds at indicated final concentrations were added to the culture medium and the cell cultures were continued for 72 h. Fresh MTT was added to each well at a terminal concentration of 5 μg/mL and incubated with cells at 37 °C for 4 h. The formazan crystals were dissolved in 100 μL DMSO each well, and the absorbency at 492 nm (for absorbance of MTT formazan) and 630 nm (for the reference wavelength) was measured with the ELISA reader. All of the compounds were tested two times in each of the cell lines. The results expressed as inhibition rates or IC50 (half-maximal inhibitory concentration) were the averages of two determinations and calculated by using the Bacus Laboratories Incorporated Slide Scanner (Bliss) software (the Bacus Laboratories Inc. Slide Scanner (BLISS) system, Lombard, IL, USA)..

The subject of data set [4] is MCF-7 cells. Kind of data set: MTT cytotoxicity assay, MCF-7. The class given is cell-based. The conditions noted are these: Homo sapiens, MCF7, 72 h. The method, then:
as §1, §2

Sequence of c-Met kinase (P08581 25-1390): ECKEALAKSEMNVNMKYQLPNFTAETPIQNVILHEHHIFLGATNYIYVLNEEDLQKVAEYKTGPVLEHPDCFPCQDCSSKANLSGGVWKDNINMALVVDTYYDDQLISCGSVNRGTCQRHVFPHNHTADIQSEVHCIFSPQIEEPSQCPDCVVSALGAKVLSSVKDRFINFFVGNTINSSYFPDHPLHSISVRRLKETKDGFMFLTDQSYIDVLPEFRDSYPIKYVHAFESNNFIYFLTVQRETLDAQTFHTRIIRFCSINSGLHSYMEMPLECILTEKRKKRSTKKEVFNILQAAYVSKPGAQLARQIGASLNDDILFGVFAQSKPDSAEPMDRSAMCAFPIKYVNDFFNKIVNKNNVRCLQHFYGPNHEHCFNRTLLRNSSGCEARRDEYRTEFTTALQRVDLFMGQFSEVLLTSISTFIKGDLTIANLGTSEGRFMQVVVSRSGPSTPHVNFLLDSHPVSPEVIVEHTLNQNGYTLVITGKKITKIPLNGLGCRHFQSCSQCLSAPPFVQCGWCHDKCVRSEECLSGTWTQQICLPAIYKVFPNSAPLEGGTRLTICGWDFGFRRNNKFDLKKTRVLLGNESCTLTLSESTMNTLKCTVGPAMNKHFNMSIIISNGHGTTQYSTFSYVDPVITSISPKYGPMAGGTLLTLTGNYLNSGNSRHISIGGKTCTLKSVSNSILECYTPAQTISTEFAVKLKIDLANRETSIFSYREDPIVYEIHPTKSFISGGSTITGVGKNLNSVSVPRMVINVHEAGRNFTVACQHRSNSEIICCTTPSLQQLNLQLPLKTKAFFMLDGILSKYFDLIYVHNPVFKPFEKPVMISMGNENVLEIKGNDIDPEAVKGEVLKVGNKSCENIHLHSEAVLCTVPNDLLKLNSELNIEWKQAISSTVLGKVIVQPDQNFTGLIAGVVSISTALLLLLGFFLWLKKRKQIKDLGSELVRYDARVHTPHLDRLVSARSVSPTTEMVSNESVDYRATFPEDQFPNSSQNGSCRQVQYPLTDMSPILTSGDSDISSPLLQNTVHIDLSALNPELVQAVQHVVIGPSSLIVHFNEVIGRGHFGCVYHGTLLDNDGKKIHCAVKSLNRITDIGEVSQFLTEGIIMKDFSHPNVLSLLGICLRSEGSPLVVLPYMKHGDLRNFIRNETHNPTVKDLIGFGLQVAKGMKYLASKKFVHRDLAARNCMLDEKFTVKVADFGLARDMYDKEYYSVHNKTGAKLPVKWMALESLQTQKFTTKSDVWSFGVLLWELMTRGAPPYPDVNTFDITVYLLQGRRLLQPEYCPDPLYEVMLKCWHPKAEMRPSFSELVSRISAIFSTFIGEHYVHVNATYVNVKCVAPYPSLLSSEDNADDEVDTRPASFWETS

The IC50 is the point on the concentration scale where inhibition reaches its midpoint. As usually defined, the melting point is the temperature, or range, at which the solid turns liquid. Consider `COc1cc2c(Oc3ccc(NC(=O)c4nn(-c5ccc(Br)cc5)ccc4=O)cc3F)ccnc2cc1OCCCN1CCCCC1` [Compound 32, 1-(4-Bromophenyl)-N-(3-fluoro-4-((6-methoxy-7-(3-(piperidin-1-yl)propoxy)quinolin-4-yl)oxy)phenyl)-4-oxo-1,4-dihydropyridazine-3-carboxamide], for which the melting point is 141.3 to 143.4 °C. In data set [1], this compound registered an IC50 of 2890 ± 460 nM. Besides, in data set [2], the IC50 worked out at 246 nM. In data set [3], this compound returned an IC50 of 1750 ± 240 nM. Moreover, the IC50 in data set [4] was 2450 ± 390 nM.

In turn, `COc1ccc(-n2ccc(=O)c(C(=O)Nc3ccc(Oc4ccnc5cc(OCCCN6CCCCC6)c(OC)cc45)c(F)c3)n2)cc1` [Compound 33, N-(3-Fluoro-4-((6-methoxy-7-(3-(piperidin-1-yl)propoxy)quinolin-4-yl)oxy)phenyl)-1-(4-methoxyphenyl)-4-oxo-1,4-dihydropyridazine-3-carboxamide] registered a melting point of 105.4 to 106.5 °C. In addition, in data set [1], the midpoint of inhibition, the IC50, lay at 2780 ± 440 nM. Besides, the IC50 in data set [2] amounted to 56 nM. The compound also registered an IC50 in data set [3] of 630 ± 80 nM. This compound had a concentration for half-maximal inhibition (IC50) in data set [4] of 2350 ± 370 nM.

For `COc1cc2c(Oc3ccc(NC(=O)c4nn(-c5ccc(F)c(Cl)c5)ccc4=O)cc3F)ccnc2cc1OCCCN1CCCCC1` [Compound 34, 1-(3-Chloro-4-fluorophenyl)-N-(3-fluoro-4-((6-methoxy-7-(3-(piperidin-1-yl)propoxy)quinolin-4-yl)oxy)phenyl)-4-oxo-1,4-dihydropyridazine-3-carboxamide], the melting point was in the range of 121.7 to 123.4 °C. Further, half-maximal inhibition in data set [1] (IC50) was put at 360 ± 40 nM. The IC50 in data set [2] turned out to be 2 nM. The same compound had an IC50 in data set [3] of 1280 ± 110 nM. The same compound showed a concentration for half-maximal inhibition (IC50) in data set [4] of 150 ± 40 nM.

`COc1cc2c(Oc3ccc(NC(=O)c4nn(-c5ccc(Br)cc5F)ccc4=O)cc3F)ccnc2cc1OCCCN1CCCCC1` [Compound 35, 1-(4-Bromo-2-fluorophenyl)-N-(3-fluoro-4-((6-methoxy-7-(3-(piperidin-1-yl)propoxy)quinolin-4-yl)oxy)phenyl)-4-oxo-1,4-dihydropyridazine-3-carboxamide] registered a melting point of 105.9 to 107.4 °C. The compound further returned an IC50 in data set [1] of 1360 ± 190 nM. Moreover, the IC50 in data set [2] turned out to be 8 nM. The compound also returned a 50% inhibitory concentration (IC50) in data set [3] of 3100 ± 490 nM. Further, 1190 ± 80 nM corresponded to half-maximal inhibition in data set [4] (IC50).

Regarding `COc1cc2c(Oc3ccc(NC(=O)c4nn(-c5ccc(Cl)c(C(F)(F)F)c5)ccc4=O)cc3F)ccnc2cc1OCCCN1CCCCC1` [Compound 36, 1-(4-Chloro-3-(trifluoromethyl)phenyl)-N-(3-fluoro-4-((6-methoxy-7-(3-(piperidin-1-yl)propoxy)quinolin-4-yl)oxy)phenyl)-4-oxo-1,4-dihydropyridazine-3-carboxamide], the melting point was 185.7 to 186.6 °C. The same compound came in with an IC50 in data set [1] of 790 ± 60 nM. Further, in data set [2], the IC50 was determined as 11 nM. The compound also gave an IC50 in data set [3] of 1800 ± 260 nM. This compound also registered a half-maximal inhibitory concentration (IC50) in data set [4] of 730 ± 80 nM.

Take `COc1cc2c(Oc3ccc(NC(=O)c4nn(-c5ccc(F)cc5)ccc4=O)cc3F)ccnc2cc1OCCCN1CCC(C)CC1` [Compound 38, N-(3-Fluoro-4-((6-methoxy-7-(3-(4-methylpiperidin-1-yl)propoxy)quinolin-4-yl)oxy)phenyl)-1-(4-fluorophenyl)-4-oxo-1,4-dihydropyridazine-3-carboxamide]: the melting point lay within 210.1 to 211.4 °C. This compound came in with an IC50 in data set [1] of 28900 ± 1460 nM. In addition, the IC50 in data set [2] was greater than 500 nM. The compound further came in with an IC50 in data set [3] of 47200 ± 1670 nM. The compound further returned a 50% inhibitory concentration (IC50) in data set [4] of 22500 ± 1350 nM.

On to `COc1cc2c(Oc3ccc(NC(=O)c4nn(-c5ccc(Cl)cc5)ccc4=O)cc3F)ccnc2cc1OCCCN1CCC(C)CC1` [Compound 39, 1-(4-Chlorophenyl)-N-(3-fluoro-4-((6-methoxy-7-(3-(4-methylpiperidin-1-yl)propoxy)quinolin-4-yl)oxy)phenyl)-4-oxo-1,4-dihydropyridazine-3-carboxamide], for which the melting point was 220.6 to 222.1 °C. This compound registered an IC50 in data set [1] of 12400 ± 1090 nM. The half-maximal inhibitory concentration (IC50) in data set [2] is 169 nM. Inhibition in data set [3] was half-maximal at 7810 ± 890 nM (IC50). Besides, the IC50 in data set [4] is 14100 ± 1150 nM.
